Read-outs that look alike come from different tables or passages of the source.
How the values were obtained:
[1] = test system: Pseudomonas aeruginosa (PAO1); assay: Minimum inhibitory concentration (MIC), broth microdilution; type: cell-based
Method: (§1) The term “minimum inhibitory concentration (MIC)” means the lowest concentration of an antimicrobial agent that will inhibit the visible growth of a microorganism after overnight incubation. MIC values against bacteria, for example, the Gram-positive Staphylococcus aureus and Enterococcus faecalis and the Gram-negative Escherichia coli and Pseudomonas aeruginosa were determined by standard methods.
(§2) With nearly three-dozen amphiphiles varying in structure and cationic nature synthesized, minimum inhibitory concentration (MIC) values against the Gram-positive Staphylococcus aureus and Enterococcus faecalis and the Gram-negative Escherichia coli and Pseudomonas aeruginosa were determined by standard methods. […] The commercially available antibacterial agent benzalkonium chloride (benzyldimethyldodecylammonium chloride, Bn,12) was tested for comparison. The broth microdilution for determining MIC values was performed as previously reported.
(§3) Different biological assays were performed. […] All cultures, with the exception of E. faecalis, were grown with shaking at 250 rpm.
(§4) Minimum inhibitory concentration (MIC) values against bacteria were measured using standard method. Compounds were serially diluted two-fold from an aqueous stock solution to yield twelve test concentrations. Overnight S. aureus, E. faecalis, E. coli, P. aeruginosa, CA-MRSA, and HA-MRSA cultures diluted to ca. 10^6 cfu/mL in Mueller-Hinton media and 100 μL were inoculated into each well of a U-bottom 96-well plate (BD Biosciences, BD351177) containing 100 μL of compound solution. Plates were incubated statically at 37° C. for 72 hours upon which time wells were evaluated visually for bacterial growth. The MIC was determined as the lowest concentration of compound resulting in no bacterial growth visible to the naked eye, based on the majority of three independent experiments. Positive and negative aqueous and media controls were conducted for each trial.

[2] = test system: Enterococcus faecalis (OG1RF); assay: as above; type: cell-based; details: read-out: MIC E. faecalis
Method: as §1, §2, §3, §4

[3] = test system: Escherichia coli (MC4100); assay: as above; type: cell-based; details: read-out: MIC E. coli
Method: as §1, §2, §3, §4

[4] = test system: Staphylococcus aureus MSSA (SH1000); assay: as above; type: cell-based; details: read-out: MIC S. aureus
Method: as §1, §2, §3, §4

[5] = test system: S. aureus (MSSA, SH1000) biofilms; assay: Minimum biofilm eradication concentration (MBEC), regrowth assay; type: cell-based, Staphylococcus aureus; details: for MBEC S. aureus: Table 2, pre-established biofilm, ± values varied between 50 and 100 μM for the six trials; for eradication of S. aureus biofilms (in words): at the concentrations tested
From the text: (§5) A regrowth assay was used to establish the MBEC of a compound to evaluate the antibiofilm activity. See also H. Ceri, M. Olson, D. Morck, D. Storey, R. Read, A. Buret, B. Olson, Methods Enzymol. 2001, 337, 377.
(§6) Encouraged by the potency of the QACs against planktonic bacterial cells, the inventors then evaluated the efficacy of compound (12,2,12) against Staphylococcus aureus and Enterococcus faecalis biofilms. […] To both accurately evaluate the antibiofilm activity, a regrowth assay was utilized to establish the minimum biofilm eradication concentration (MBEC) of each compound.
(§7) Different biological assays were performed. For all biological assays, laboratory strains of methicillin-susceptible Staphylococcus aureus MSSA (SH1000), Enterococcus faecalis (OG1RF), Escherichia coli (MC4100), Pseudomonas aeruginosa (PAO1), community-acquired methicillin-resistant Staphylococcus aureus CA-MRSA (USA300-0114), and hospital-acquired methicillin-resistant Staphylococcus aureus HA-MRSA (ATCC 33591) were grown at 37° C. overnight from freezer stocks in 10 mL of the media indicated for each assay. All cultures, with the exception of E. faecalis, were grown with shaking at 250 rpm.
(§8) Minimum biofilm eradication concentration (MBEC) was also measured. To each well of a flat-bottomed 96-well plate (Corning 3370), 8 μL of overnight bacterial culture was brought to a volume of 200 μL with fresh media (BHI for S. aureus and MRSA, Todd Hewitt (TH) for E. faecalis). Plates were incubated statically for 24 hours at 37° C. to establish biofilms. After 24 hours, the wells were carefully emptied by inverting the plate and gently shaking. A pre-mixed solution of media and aqueous compound stock solution was added to each well and plates were incubated at 37° C. 16 hours after pre-established biofilms were treated with compound, the media from each well was removed, biofilms were washed three times with 200 μL PBS to remove planktonic cells, and biofilms were incubated overnight at 37° C. in 200 μL of fresh media to allow any viable cells to continue growing. The wells were then vigorously pipetted to resuspend the biofilm cells and the OD at 595 nm was measured using a plate reader (POLARstar Omega, BMG Labtech). Biofilms reaching a final OD of less than 0.1 were considered eradicated and the lowest concentration of antibiotic corresponded to the MBEC. Four replicates were completed for each concentration of compound as well as positive and negative controls.

[6] = test system: E. faecalis biofilms; assay: as above; type: cell-based, Enterococcus faecalis; details: for MBEC E. faecalis: Table 2, pre-established biofilm, ± values varied between 50 and 100 μM for the six trials; for eradication of E. faecalis biofilms (in words): at the concentrations tested
From the text: as §5, §6, §7, §8

[7] = Table 3, read-out: MIC P. aeruginosa
[8] = Table 1, read-out: MIC P. aeruginosa
[9] = Pseudomonas aeruginosa, PAO1, read-out: MIC P. aeruginosa

Row | SMILES | MIC [1, 7] [µM] | MIC ([2]; Table 3) [µM] | MIC ([3]; Table 3) [µM] | MIC ([4]; Table 3) [µM] | other results
1 | CCCCCCCCCC[N+](C)(C)CCCCC[N+](C)(C)CCCCCCCCCC.[Br-].[Br-] [10, 5, 10] | 63 | 4 | 8 | 2 | –
2 | CCCCCCCCCCCCCCCC[N+](C)(C)CCN(C)CC[N+](C)(C)CCCCCCCCCCCCCCCC.[Br-].[Br-] [16, 2, 0, 2, 16] | 32 | 2 | 16 | 4 | –
3 | C=CC[N+](C)(CC[N+](C)(C)CCCCCCCCCC)CC[N+](C)(C)CCCCCCCCCC.[Br-].[Br-].[Br-] [10, 2, 3A, 2, 10] | 63 | 4 | 2 | 2 | –
4 | CCCCCCCCCCCCCC[N+](C)(C)CCN(C)CCN(C)CCN(C)C.[Br-] [N4-14,0,0, 0] | 125 | 16 | 32 | 16 | –
5 | CCCCCCCCCCCC[N+](C)(C)CCN(C)CCN(C)CCN(C)C.[Br-] [N4-12,0,0, 0] | 32 | 8 | 8 | 8 | –
6 | C=CC[N+](C)(CC[N+](C)(C)CCCCCCCCCCCCCCCC)CC[N+](C)(C)CCCCCCCCCCCCCCCC.[Br-].[Br-].[Br-] [16, 2, 3A, 2, 16] | 16 | 4 | 8 | 4 | –
7 | CCCCCCCCCCCCCC[N+](C)(C)CCN(C)CCN(C)CC[N+](C)(C)CCCCCCCCCCCCCC.[Br-].[Br-] [N4-14,0,0, 14] | 16 | 1 | 2 | 2 | –
8 | CCCCCCCCCCCC[N+](C)(C)CCCCCCCCCCCC.[Br-] [12,12] | – | – | – | – | MIC [1, 8]: 32 µM; MIC ([2]; Table 1): 1 µM; MIC ([3]; Table 1): 8 µM; MIC ([4]; Table 1): 1 µM; MBEC S. aureus [5]: >200 µM; MBEC E. faecalis [6]: 200 µM
9 | C[N+](C)(C)CC[N+](C)(C)C [1,2,1] | – | – | – | – | MIC [1, 8]: >500 µM; MIC ([2]; Table 1): >500 µM; MIC ([3]; Table 1): >500 µM; MIC ([4]; Table 1): >500 µM; MBEC S. aureus [5]: >200 µM; eradication of S. aureus biofilms (in words) [5]: unable to eradicate biofilms; MBEC E. faecalis [6]: >200 µM; eradication of E. faecalis biofilms (in words) [6]: unable to eradicate biofilms
10 | C=CC[N+](C)(CC[N+](C)(C)CCCCCCCCCCCCCC)CC[N+](C)(C)CCCCCCCCCCCCCC.[Br-].[Br-].[Br-] [14, 2, 3A, 2, 14] | 8 | 2 | 2 | 2 | –
11 | CCCCCCCCCCCCCC[N+](C)(C)CC[N+](C)(C)CC[N+](C)(C)CCCCCCCCCCCCCC.[Br-].[Br-].[I-] [14, 2, 1, 2, 14] | 8 | 1 | 2 | 1 | –
12 | CCCCCCCCCCCC[N+](C)(C)CCCCCCC[N+](C)(C)CCCCCCCCCCCC.[Br-].[Br-] [12, 7, 12] | 8 | 1 | 2 | 1 | –
13 | CCCCCCCCCCCCCC[N+](C)(C)CCCCC[N+](C)(C)CCCCCCCCCCCCCC.[Br-].[Br-] [14, 5, 14] | 16 | 1 | 4 | 1 | –
14 | C=CC[N+](C)(CC[N+](C)(C)CCCCCCCCCCC)CC[N+](C)(C)CCCCCCCCCCC.[Br-].[Br-].[Br-] [11, 2, 3A, 2, 11] | 16 | 2 | 2 | 1 | –
15 | CCCCCCCCCCC[N+](C)(C)CCN(C)CC[N+](C)(C)CCCCCCCCCCC.[Br-].[Br-] [11, 2, 0, 2, 11] | 8 | 2 | 2 | 2 | –
16 | CCCCCCCCCC[N+](C)(C)CCN(C)CC[N+](C)(C)CCCCCCCCCC.[Br-].[Br-] [10, 2, 0, 2, 10] | 63 | 8 | 8 | 2 | –
17 | CCCCCCCCCC[N+](C)(C)CC[N+](C)(C)CC[N+](C)(C)CCCCCCCCCC.[Br-].[Br-].[I-] [10, 2, 1, 2, 10] | 63 | 8 | 8 | 2 | –
18 | CCCCCCCCCCCCCC[N+](C)(C)CCN(C)CCN(C)CC[N+](C)(C)CCCCCCCCCCCC.[Br-].[Br-] [N4-14,0,0, 12] | 8 | 1 | 2 | 1 | –
19 | CCCCCCCCCCCCCC[N+](C)(C)CCN(C)CC[N+](C)(C)CCCCCCCCCCCCCC.[Br-].[Br-] [14, 2, 0, 2, 14] | 16 | 1 | 4 | 2 | –
20 | CCCCCCCCCCC[n+]1ccc(-c2cc[n+](CCCCCCCCCCC)cc2)cc1 [PQ-11,11] | – | – | – | – | MIC [1, 9]: 4 µM; MIC ([2]; Enterococcus faecalis): 1 µM; MIC ([3]; Escherichia coli): 1 µM; MIC ([4]; Staphylococcus aureus, MSSA): 1 µM; MBEC S. aureus [5]: 50 µM; MBEC E. faecalis [6]: 50 µM
21 | C[N+](C)(C)CCCCC[N+](C)(C)C [1,5,1] | – | – | – | – | MIC [1, 8]: >500 µM; MIC ([2]; Table 1): >500 µM; MIC ([3]; Table 1): >500 µM; MIC ([4]; Table 1): >500 µM; MBEC S. aureus [5]: >200 µM; eradication of S. aureus biofilms (in words) [5]: unable to eradicate biofilms; MBEC E. faecalis [6]: >200 µM; eradication of E. faecalis biofilms (in words) [6]: unable to eradicate biofilms
22 | CCCCCCCCCCC[N+](C)(C)CC[N+](C)(C)CC[N+](C)(C)CCCCCCCCCCC.[Br-].[Br-].[I-] [11, 2, 1, 2, 11] | 8 | 2 | 4 | 2 | –
23 | NCCCNCCCN [Norspermidine, reference compound] | – | – | – | – | MIC [1, 9]: > 500 µM; MIC ([2]; Enterococcus faecalis): > 500 µM; MIC ([3]; Escherichia coli): > 500 µM; MIC ([4]; Staphylococcus aureus, MSSA): > 500 µM; MBEC S. aureus [5]: >200 µM; MBEC E. faecalis [6]: >200 µM

Reference: patent US10398142B2, “Polycationic amphiphiles as antimicrobial agents” (priority 2013, dated 2019)
